Test results published in US12172995B2, “Substituted indole and indazole compounds” (BRISTOL-MYERS SQUIBB COMPANY, priority 2018, dated 2024).

Key:
Assay type in all cases: cell-based
[1] = target: T1, human TLR8 (Homo sapiens, UniProt Q9NR97); experiment: TLR8 inhibition reporter assay (HEK-Blue SEAP); details: HEK-Blue cells overexpressing human TLR8, stimulated with R848 15.9 μM, 22 hour incubation
T1 construct: host or cells: HEK-Blue cells
T1 sequence (Q9NR97 27-1041): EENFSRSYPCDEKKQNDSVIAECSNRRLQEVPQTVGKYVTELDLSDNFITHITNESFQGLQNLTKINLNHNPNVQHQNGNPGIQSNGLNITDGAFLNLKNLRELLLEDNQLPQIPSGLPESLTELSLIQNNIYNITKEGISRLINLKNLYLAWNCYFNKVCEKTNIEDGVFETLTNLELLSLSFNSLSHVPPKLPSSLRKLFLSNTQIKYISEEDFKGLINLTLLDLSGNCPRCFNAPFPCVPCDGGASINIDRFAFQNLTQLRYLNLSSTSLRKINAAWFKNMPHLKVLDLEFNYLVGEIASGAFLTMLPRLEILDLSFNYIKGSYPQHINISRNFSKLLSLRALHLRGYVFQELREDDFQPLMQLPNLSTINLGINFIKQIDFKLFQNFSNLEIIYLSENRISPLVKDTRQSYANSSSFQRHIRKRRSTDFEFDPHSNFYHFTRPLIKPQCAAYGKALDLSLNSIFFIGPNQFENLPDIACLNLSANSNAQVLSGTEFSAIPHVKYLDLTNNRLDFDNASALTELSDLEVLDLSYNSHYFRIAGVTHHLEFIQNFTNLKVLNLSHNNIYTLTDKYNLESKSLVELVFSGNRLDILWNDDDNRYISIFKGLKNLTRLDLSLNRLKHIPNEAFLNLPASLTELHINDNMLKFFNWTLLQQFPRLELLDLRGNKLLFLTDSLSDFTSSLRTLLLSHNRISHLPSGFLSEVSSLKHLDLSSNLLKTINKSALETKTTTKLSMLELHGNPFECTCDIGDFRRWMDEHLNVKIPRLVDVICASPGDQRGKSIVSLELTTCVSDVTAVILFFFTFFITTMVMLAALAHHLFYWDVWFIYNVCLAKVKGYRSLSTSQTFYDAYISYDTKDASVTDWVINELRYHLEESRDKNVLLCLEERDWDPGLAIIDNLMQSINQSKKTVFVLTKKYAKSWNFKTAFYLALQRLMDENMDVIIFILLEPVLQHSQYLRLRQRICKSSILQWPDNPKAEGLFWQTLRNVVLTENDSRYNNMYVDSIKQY
Method in brief: (§1)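 HEK-Blue cells overexpressing human TLR7, TLR8 or TLR9 with an NF-κB/AP-1-driven SEAP reporter were pre-treated 30 min at room temperature with compound (0.05 nM to 50 μM), then stimulated with gardiquimod 7.5 μM (TLR7), R848 15.9 μM (TLR8) or ODN2006 5 nM (TLR9). SEAP measured after 22 h at 37° C; inhibition normalized between agonist-plus-DMSO and reference-inhibitor wells.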

[2] = target: T2, human TLR7 (Homo sapiens, UniProt Q9NYK1); experiment: TLR7 inhibition reporter assay (HEK-Blue SEAP); details: HEK-Blue cells overexpressing human TLR7, stimulated with gardiquimod 7.5 μM, 22 hour incubation
T2 construct: host or cells: HEK-Blue cells
T2 sequence (Q9NYK1 27-1049): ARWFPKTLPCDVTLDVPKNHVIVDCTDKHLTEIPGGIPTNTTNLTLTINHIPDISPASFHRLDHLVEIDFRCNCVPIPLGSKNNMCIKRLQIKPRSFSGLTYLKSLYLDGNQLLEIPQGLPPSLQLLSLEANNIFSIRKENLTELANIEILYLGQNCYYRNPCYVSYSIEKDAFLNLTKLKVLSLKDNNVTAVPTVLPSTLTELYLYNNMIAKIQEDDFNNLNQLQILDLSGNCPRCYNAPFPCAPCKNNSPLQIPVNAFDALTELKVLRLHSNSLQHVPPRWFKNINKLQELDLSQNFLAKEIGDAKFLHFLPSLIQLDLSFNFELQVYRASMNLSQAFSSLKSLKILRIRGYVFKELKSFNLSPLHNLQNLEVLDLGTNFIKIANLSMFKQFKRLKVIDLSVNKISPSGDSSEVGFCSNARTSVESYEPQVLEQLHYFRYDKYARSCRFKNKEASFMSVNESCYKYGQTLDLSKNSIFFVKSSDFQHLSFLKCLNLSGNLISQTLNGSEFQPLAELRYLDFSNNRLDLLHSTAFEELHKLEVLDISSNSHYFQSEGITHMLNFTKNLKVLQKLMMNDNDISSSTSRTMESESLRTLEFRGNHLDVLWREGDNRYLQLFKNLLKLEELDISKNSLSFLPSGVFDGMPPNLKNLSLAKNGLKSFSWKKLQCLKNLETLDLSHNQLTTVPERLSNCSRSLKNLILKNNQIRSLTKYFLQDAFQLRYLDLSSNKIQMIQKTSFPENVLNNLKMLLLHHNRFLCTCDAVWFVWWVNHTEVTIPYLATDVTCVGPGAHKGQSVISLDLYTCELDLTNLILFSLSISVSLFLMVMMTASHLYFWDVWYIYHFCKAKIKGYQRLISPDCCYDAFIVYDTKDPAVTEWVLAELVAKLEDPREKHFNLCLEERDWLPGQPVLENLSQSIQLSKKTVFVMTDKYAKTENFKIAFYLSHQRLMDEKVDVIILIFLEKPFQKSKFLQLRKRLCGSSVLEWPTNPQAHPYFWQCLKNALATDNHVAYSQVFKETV
Method in brief: as §1

[3] = target: T3, human TLR9 (Homo sapiens, UniProt Q9NR96); experiment: TLR9 inhibition reporter assay (HEK-Blue SEAP); details: HEK-Blue cells overexpressing human TLR9, stimulated with ODN2006 5 nM, 22 hour incubation
T3 construct: host or cells: HEK-Blue cells
T3 sequence (Q9NR96 26-1032): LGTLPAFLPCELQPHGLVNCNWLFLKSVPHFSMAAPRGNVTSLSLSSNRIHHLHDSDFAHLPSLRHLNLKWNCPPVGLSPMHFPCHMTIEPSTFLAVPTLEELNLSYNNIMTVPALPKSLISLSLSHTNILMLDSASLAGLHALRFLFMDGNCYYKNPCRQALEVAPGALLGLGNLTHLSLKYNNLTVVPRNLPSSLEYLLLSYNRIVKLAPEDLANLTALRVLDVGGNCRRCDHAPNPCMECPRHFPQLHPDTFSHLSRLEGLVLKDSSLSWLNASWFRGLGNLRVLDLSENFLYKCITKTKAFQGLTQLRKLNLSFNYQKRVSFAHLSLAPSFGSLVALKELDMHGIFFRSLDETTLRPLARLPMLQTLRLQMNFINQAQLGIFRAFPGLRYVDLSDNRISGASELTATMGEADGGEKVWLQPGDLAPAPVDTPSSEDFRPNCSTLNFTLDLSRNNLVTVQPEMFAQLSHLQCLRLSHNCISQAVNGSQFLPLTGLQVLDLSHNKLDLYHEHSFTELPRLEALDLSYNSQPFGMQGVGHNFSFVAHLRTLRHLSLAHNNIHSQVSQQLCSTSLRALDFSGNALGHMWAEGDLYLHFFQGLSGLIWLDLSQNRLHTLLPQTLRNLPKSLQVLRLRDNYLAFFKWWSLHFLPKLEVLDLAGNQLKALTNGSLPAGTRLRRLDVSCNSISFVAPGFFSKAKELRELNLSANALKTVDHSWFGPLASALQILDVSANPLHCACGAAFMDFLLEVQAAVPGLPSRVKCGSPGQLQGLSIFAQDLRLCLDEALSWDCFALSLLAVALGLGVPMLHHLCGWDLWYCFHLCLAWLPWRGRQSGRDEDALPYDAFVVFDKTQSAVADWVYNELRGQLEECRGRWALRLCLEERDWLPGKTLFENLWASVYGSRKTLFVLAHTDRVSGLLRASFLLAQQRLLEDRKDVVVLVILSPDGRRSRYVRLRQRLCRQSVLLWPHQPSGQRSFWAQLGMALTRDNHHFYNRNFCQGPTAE
Method in brief: as §1

| Compound | IC50 [1] [nM] | IC50 [2] [nM] | IC50 [3] [nM] |
| --- | --- | --- | --- |
| Cc1cc(-c2ccc3c(C(=O)NC4CCNCC4)n[nH]c3c2)cn2ncnc12 [Example 199, 6-(8-methyl-[1,2,4]triazolo[1,5-a]pyridin-6-yl)-N-(piperidin-4-yl)-1H-indazole-3-carboxamide] | 218 | 226 | 4370 |
| Cc1cc(-c2ccc3c(C(=O)NC4CCNCC4)c[nH]c3c2)cn2ncnc12 [Example 198, 6-(8-methyl-[1,2,4]triazolo[1,5-a]pyridin-6-yl)-N-(piperidin-4-yl)-1H-indole-3-carboxamide] | 590 | 493 | 9210 |
| Cc1cc2c(C3CCC(NCCS(C)(=O)=O)CC3)n[nH]c2cc1-c1cc(C)c2ncnn2c1 (stereo not drawn) [Example 31, 4-(5-methyl-6-(8-methyl-[1,2,4]triazolo[1,5-a]pyridin-6-yl)-1H-indazol-3-yl)-N-(2-(methylsulfonyl)ethyl)cyclohexan-1-amine] | 0.6 | 39.8 | 6120 |
| Cc1cc(-c2cc3[nH]nc(C4CCC(N5CCC(F)C5)CC4)c3cc2C(C)C)cn2ncnc12 (stereo not drawn) [Example 163, 6-(3-(4-(3-fluoropyrrolidin-1-yl)cyclohexyl)-5-isopropyl-1H-indazol-6-yl)-8-methyl-[1,2,4] triazolo[1,5-a]pyridine] | 0.1 | 0.9 | 6230 |
| CCc1cc2c(C3CCN(C(=O)CN(C)C)CC3)n[nH]c2cc1-c1cc(C)c2ncnn2c1 [Example 87, 2-(dimethylamino)-1-(4-(5-ethyl-6-(8-methyl-[1,2,4]triazolo[1,5-a]pyridin-6-yl)-1H-indazol-3-yl)piperidin-1-yl)ethan-1-one] | 0.6 | 6.3 | 11600 |
| Cc1cc(-c2cc3[nH]nc(C4CCC(N5CC6(COC6)C5)CC4)c3cc2C(C)C)cn2ncnc12 (single isomer, unassigned) [Example 129, 6-(4-(5-isopropyl-6-(8-methyl-[1,2,4]triazolo[1,5-a]pyridin-6-yl)-1H-indazol-3-yl)cyclohexyl)-2-oxa-6-azaspiro[3.3]heptane] | 0.5 | 4.1 | 7550 |
| CCc1cc2c(C3CCN(C(=O)CCCN(C)C)CC3)n[nH]c2cc1-c1cc(C)c2ncnn2c1 [Example 107, 4-(dimethylamino)-1-(4-(5-ethyl-6-(8-methyl-[1,2,4]triazolo[1,5-a]pyridin-6-yl)-1H-indazol-3-yl)piperidin-1-yl)butan-1-one] | 1.7 | 10.3 | 16700 |
| Cc1cc(-c2cc(C)c3ncnn3c2)cc2[nH]nc(C3CCNCC3)c12 [Example 27, 8-methyl-6-(4-methyl-3-(piperidin-4-yl)-1H-indazol-6-yl)-[1,2,4]triazolo[1,5-a]pyridine] | 25.9 | 6.6 | 650 |
| Cc1cc(-c2cc(C)c3ncnn3c2)cc2[nH]nc(C3CCN(CC(=O)N(C)C)CC3)c12 [Example 76, N,N-dimethyl-2-(4-(4-methyl-6-(8-methyl-[1,2,4]triazolo[1,5-a]pyridin-6-yl)-1H-indazol-3-yl)piperidin-1-yl) acetamide] | 37.8 | 6.9 | 2110 |
| CCc1cc(-c2cc(C)c3ncnn3c2)cc2[nH]nc(C3CCNCC3)c12 [Example 109, 6-(4-ethyl-3-(piperidin-4-yl)-1H-indazol-6-yl)-8-methyl-[1,2,4]triazolo[1,5-a]pyridine] | 2.6 | 2 | 1630 |
| CCc1cc2c(C3CCN(C4CCOCC4)CC3)n[nH]c2cc1-c1cc(C)c2ncnn2c1 [Example 88, 6-(5-ethyl-3-(1-(tetrahydro-2H-pyran-4-yl)piperidin-4-yl)-1H-indazol-6-yl)-8-methyl-[1,2,4]triazolo[1,5-a]pyridine] | 0.2 | 3.7 | 14200 |
| CCCN1CCC(c2n[nH]c3cc(-c4cc(C)c5ncnn5c4)c(C)cc23)CC1 [Example 22, 8-methyl-6-(5-methyl-3-(1-propylpiperidin-4-yl)-1H-indazol-6-yl)-[1,2,4]triazolo[1,5-a]pyridine] | 0.8 | 17.7 | 3130 |
| Cc1cc(-c2cc(C)c3ncnn3c2)cc2[nH]nc(OC3CCN(CC#N)CC3)c12 [Example 194, 2-(4-((4-methyl-6-(8-methyl-[1,2,4]triazolo[1,5-a]pyridin-6-yl)-1H-indazol-3-yl)oxy)piperidin-1-yl)acetonitrile] | 1.9 | 7.2 | 1660 |
| Cc1cc(-c2cc3[nH]nc(C4CCN(CC(C)(C)O)CC4)c3cc2C(C)C)cn2ncnc12 [Example 113, 1-(4-(5-isopropyl-6-(8-methyl-[1,2,4]triazolo[1,5-a]pyridin-6-yl)-1H-indazol-3-yl)piperidin-1-yl)-2-methylpropan-2-ol] | 0.1 | 1.5 | 20300 |
